Source: patent US20050256051A1, “Nuclear receptor-mediated introduction of a PNA into cell nuclei” (The Population Council, Inc., priority 2001, published 2005)

Key:
[1] = Solubility of PNA constructs in culture medium and stock solution; format: physicochemical; conditions: cell culture medium (RPMI complete medium); higher concentrations precipitate; read-out: maximum solubility in RPMI complete medium
Experimental: Table 1 contains a description of the experimental PNAs used in this study, including their modifications and corresponding abbreviations. In particular, PNA-mycwt is a 17-mer PNA anti-gene for the unique sequence of c-myc, bases 4528-4544, in its II exon (21). […] All the other PNAs listed in Table 1 had solubilities in excess of 500 μM (stock solution described above), far above the 10 μM concentration used in most experiments.

c-myc gene [2] = experiment: MYC protein by Western blot normalized to H2b, LNCaP cells; format: cell-based, human; conditions: for change in MYC: 2 μM, preliminary experiments
Experimental: (§1) Total cellular proteins samples were derived from 10^7 cells solubilized in 200 μl Urea lysis buffer (9M Urea, 50 mM Tris, pH 7.0) with brief sonication at 0° C. as needed. Western blot analysis for MYC expression was performed as described previously (29). Briefly, total cellular proteins were electrophoretically separated using 10% acrylamide, 0.4% (w/v) SDS gels and then transferred to a nitrocellulose membrane (Hybond C-extra, Amersham). The membrane was then cut at a […] molecular weight level (using as reference Kaleidoscope pre-stained standards, BioRad). Both membrane halves were incubated in parallel overnight with a primary antibody (top with anti-myc antibody, 9E10 Calbiochem, San Diego, Calif.; bottom with anti-H2b antibody kindly provided by Dr. M. Romani, IST, Genova, I). The membranes were washed and exposed to a rabbit anti-mouse IgG (Dakopatts, Glostrup, DK) at room temperature for 1 h. MYC and H2b bands were visualized by the incubation of the membrane with alkaline phosphatase-conjugated goat anti-rabbit IgG (Sigma) at room temperature for 2 h followed by exposure to the 5-bromo-4-chloro-3-indolylphosphate/nitro blue tetrazolium substrate developer (BCIP/NBT, Sigma).
(§2) The stained and reassembled Western blot images, from triplicate experiments, were digitally acquired, elaborated in Photoshop, and then quantified using Scion-Image. MYC concentrations were normalized to the matching histone H2b concentrations (a protein that remains constant throughout the treatment described). Therefore MYC concentration is reported as a ratio to an H2b standard. For Western blot analyses, the average error was 14.0% (range 8.3 to 25.1%) in the LNCaP experiments and for those with DU145 averaged 10.2% (range 8.5 to 20.3%).
As shown in Fugure 4A, the amount of MYC protein was evaluated by Western blot analysis of […]. The effects of PNAs on expression of the c-myc gene in LNCaP and DU145 cells were also obtained by immunochemical measurement of the MYC protein content of cell lysates, using data obtained from at least a triplicate run of each set of immunostained Western blots. In each case, the MYC content of the whole cell lysate was compared to that of histone H2b, a protein that remains constant throughout the treatment described. The constancy of H2b made it possible to represent variations in MYC protein concentration normalized to the H2b content in the same lysate.

LNCaP cells [3] = experiment: Cell viability by Trypan blue exclusion, LNCaP cells
Experimental: (§3) Two prostatic carcinoma derived cell lines were used (LNCaP and DU145 cultured in RPMI-1640, 10% charcoal-stripped fetal calf serum). Their features and culture conditions were as previously detailed (26, 27). PNA stock solutions (500 μM in H2O neutralized with NaOH) were added as an aliquot to the culture medium to their final concentration. […] In the gene regulation experiments, PNAmycwt, PNAmycwt-T, PNAmycmut-T, and PNAmycwt-NLS were present at a final 10 μM concentration in the culture medium, for 0, 24, 48, or 72 hours. Cell growth was measured by total cell counts from three replicate flasks (1.3-5.0×10^6 per each 75 cm^2/flask) while cell viability was determined by Trypan blue exclusion. The standard deviation was calculated both for cell growth and viability keeping into account the data from all the experiments (minimum of three each).
(§4) LNCaP and DU145 cells were treated with a 10 μM concentration of PNA constructs in the culture medium (PNA-mycwt-T (Δ), PNA-mycwt, PNA-mycmut, PNA-mycmut-T (●) as negative controls and PNA-mycwt-NLS (▪) as positive control). Cell numbers (FIGS. 3A and C) and viability (FIGS. 3B and D) were estimated, as described above, at increasing times of exposure to different PNA constructs.

DU145 cells [4] = experiment: Cell growth by total cell counts, DU145 cells; format: cell-based, human; conditions: 10 μM, 72 h
Experimental: as §3, §4

Burkitt's lymphoma cells = conditions: 10 μM in the cell medium; cited from earlier work
LNCaP cells [5] = experiment: Cell growth by total cell counts, LNCaP cells; format: cell-based, human; conditions: 10 μM, 72 hours
Experimental: as §3, §4

c-myc gene [6] = experiment: MYC protein by Western blot normalized to H2b, DU145 cells; format: cell-based, human; conditions: 10 μM
Experimental: as §1, §2
As shown in Fugure 4A, the amount of MYC protein was evaluated by Western blot analysis of total nuclear proteins. […]

DU145 cells [7] = experiment: Cell viability by Trypan blue exclusion, DU145 cells; format: cell-based, human; conditions: 10 μM, up to 72 h, compared with the about 20% decline seen in LNCaP
Experimental: as §3, §4

Question: For CCN(CC)c1ccc2c(-c3ccccc3C(=O)NCCCC[C@H](NC(=O)COCCOCCNC(=O)CN(CCNC(=O)CN(CCNC(=O)CN(CCNC(=O)CN(CCNC(=O)CN(CCNC(=O)CN(CCNC(=O)CN(CCNC(=O)CN(CCNC(=O)CN(CCNC(=O)CN(CCNC(=O)CN(CCNC(=O)CN(CCNC(=O)CN(CCNC(=O)CN(CCNC(=O)CN(CCNC(=O)CN(CCNC(=O)CN(CCN)C(=O)Cn3cc(C)c(=O)[nH]c3=O)C(=O)Cn3ccc(N)nc3=O)C(=O)Cn3cnc4c(N)ncnc43)C(=O)Cn3cnc4c(N)ncnc43)C(=O)Cn3ccc(N)nc3=O)C(=O)Cn3cnc4c(=O)[nH]c(N)nc43)C(=O)Cn3cc(C)c(=O)[nH]c3=O)C(=O)Cn3cc(C)c(=O)[nH]c3=O)C(=O)Cn3cnc4c(N)ncnc43)C(=O)Cn3cnc4c(=O)[nH]c(N)nc43)C(=O)Cn3ccc(N)nc3=O)C(=O)Cn3cc(C)c(=O)[nH]c3=O)C(=O)Cn3cc(C)c(=O)[nH]c3=O)C(=O)Cn3ccc(N)nc3=O)C(=O)Cn3cnc4c(N)ncnc43)C(=O)Cn3ccc(N)nc3=O)C(=O)Cn3ccc(N)nc3=O)C(=O)NCC(N)=O)c3ccc(=[N+](CC)CC)cc-3oc2c1 [PNA-mycwt-R], which solubility [1] is on record?
Answer: Its solubility is 2 µM.

Question: For CCN(CC)c1ccc2c(-c3ccccc3C(=O)NCCCC[C@H](NC(=O)COCCOCCNC(=O)CN(CCNC(=O)CN(CCNC(=O)CN(CCNC(=O)CN(CCNC(=O)CN(CCNC(=O)CN(CCNC(=O)CN(CCNC(=O)CN(CCNC(=O)CN(CCNC(=O)CN(CCNC(=O)CN(CCNC(=O)CN(CCNC(=O)CN(CCNC(=O)CN(CCNC(=O)CN(CCNC(=O)CN(CCNC(=O)CN(CCNC(=O)COCCOCCNC(=O)CCC(=O)O[C@H]3CC[C@H]4[C@@H]5CC[C@H]6CC(=O)CC[C@]6(C)[C@H]5CC[C@]34C)C(=O)Cn3cc(C)c(=O)[nH]c3=O)C(=O)Cn3ccc(N)nc3=O)C(=O)Cn3cnc4c(N)ncnc43)C(=O)Cn3cnc4c(N)ncnc43)C(=O)Cn3ccc(N)nc3=O)C(=O)Cn3cnc4c(=O)[nH]c(N)nc43)C(=O)Cn3cc(C)c(=O)[nH]c3=O)C(=O)Cn3cc(C)c(=O)[nH]c3=O)C(=O)Cn3cnc4c(N)ncnc43)C(=O)Cn3cnc4c(=O)[nH]c(N)nc43)C(=O)Cn3ccc(N)nc3=O)C(=O)Cn3cc(C)c(=O)[nH]c3=O)C(=O)Cn3cc(C)c(=O)[nH]c3=O)C(=O)Cn3ccc(N)nc3=O)C(=O)Cn3cnc4c(N)ncnc43)C(=O)Cn3ccc(N)nc3=O)C(=O)Cn3ccc(N)nc3=O)C(=O)NCC(N)=O)c3ccc(=[N+](CC)CC)cc-3oc2c1 [PNA-mycwt-TR], which solubility [1] is on record?
Answer: Its solubility is 2 µM.

Question: And the “change in MYC” value (c-myc gene [2]; 24 hours)?
Answer: Its value is −20%.

Question: And the “change in MYC” value (c-myc gene [2]; 48 h)?
Answer: The value was −30%.

Question: And the “change in MYC” value (c-myc gene [2]; 72 h)?
Answer: Its value is −30%.

Question: For “PNA-mycwt-NLS: c-myc anti-gene PNA (SEQ ID NO:1) linked to SV40 Nuclear Localization Signal peptide PKKKRKV; positive control (TCAACGTTAGCTTCACC; all peptide nucleic acid (PNA); further chemistry not fully specified) [reference compound]”, which “decline in cell viability” value (LNCaP cells [3]; 10 µM) is on record?
Answer: The value was “about 20%”.

Question: What about the “inhibition of cell growth” value (DU145 cells [4]) of the same molecule?
Answer: The value was 36%.

Question: What about the cell viability (Burkitt's lymphoma cells) of the same molecule?
Answer: The cell viability was “small decrease”.

Question: What about the “inhibition of MYC expression” value (Burkitt's lymphoma cells) of the same molecule?
Answer: Its value is “maximum inhibition”.

Question: What about the cell growth (LNCaP cells [5]) of the same molecule?
Answer: The cell growth was 34 % of control.

Question: And the “inhibition of MYC” value (c-myc gene [6]; 72 hours, linear inhibition)?
Answer: The value was “about 65%”.

Question: What about the “effect on cell viability” value (DU145 cells [7]) of the same molecule?
Answer: Its value is “same magnitude and timing”.

Question: What about the “decrease in MYC content” value (c-myc gene [2]; 10 μM, 72 h, linear decrease) of the same molecule?
Answer: Its value is 52%.

Question: Which “decline in cell viability” value (LNCaP cells [3]; LNCaP cells, 10 μM, 72 h) does the source give for “PNA-mycwt-T: c-myc anti-gene PNA (SEQ ID NO:1) linked to dihydrotestosterone at N-terminal (TCAACGTTAGCTTCACC; all peptide nucleic acid (PNA); dihydrotestosterone conjugated at PNA N-terminus)” here?
Answer: The value was “about 20%”.

Question: And the cell growth (LNCaP cells [5])?
Answer: Its cell growth is 34 % of control.

Question: And the “effect on MYC protein / expression” value (c-myc gene [6])?
Answer: Its value is “unaltered”.

Question: What about the “effect on MYC protein / expression” value (c-myc gene [2]; 10 μM) of the same molecule?
Answer: The value was “significant and persistent decrease”.

Question: What about the “change in MYC content” value (c-myc gene [2]; 10 μM, 24 h) of the same molecule?
Answer: The value was −63%.

Question: And the “change in MYC content” value (c-myc gene [2]; 10 μM, 48 hours)?
Answer: Its value is −50%.

Question: And the “change in MYC content” value (c-myc gene [2]; 10 μM, 72 hours)?
Answer: The value was −42%.

Question: With “PNA-mycwt: 17-mer c-myc anti-gene PNA, TCA ACG TTA GCT TCA CC (SEQ ID NO:1), vector-free (TCAACGTTAGCTTCACC; all peptide nucleic acid (PNA); further chemistry not fully specified)” as the molecule, how does the “effect on MYC protein / expression” value (c-myc gene [6]) read?
Answer: Its value is “unaltered”.

Question: What about the “effect on MYC protein / expression” value (c-myc gene [2]; 10 μM) of the same molecule?
Answer: The value was “unchanged”.
